From patent publication US4855290A (priority 1985, dated 1989)
pEC50, pIC50: −log10 of the molar value. Values joined by “and” are separate entries in the source; they are usually repeats but may differ in a detail not shown here. Equal entries are not always repeated. “Also recorded” adds a separate entry of the source. Where two headings read alike, the source gives them in different places.

Experiments:
[1] = Tremor induced by AF102B, mice; format: in vivo; settings: ip
Excerpt: (§1) rats; these effects are observed around the toxic doses of the compound

Guinea-pig ileum [2] = assay: Guinea-pig ileum induced contractions; settings: ileum contraction
[3] = Acute toxicity in mice, ip; format: in vivo; settings: 80 mg./kg.
in vivo [4] = settings: rat, ip
[5] = Morris Swimming Maze in AF64A- and CSF-injected rats; format: in vivo, male Sprague Dawley rats; settings: ip
Method: 38 male Sprague Dawley rats (raised by Charles River) 5-6 months old with an average weight of 500 g. were used. The rats were housed in groups of 5 and were given free access to food and water. Testing was carried out in a round white metal tub 1.4 m. diameter and 0.4 m. deep. The tub was filled with water, made opaque by milk powder to the level of 18 cm. A platform of 12 cm. diameter and at a height of 16 cm. was placed in the tub 2 cm. below water level. The platform was covered with gauze to prevent the animal from slipping back into the water after reaching the platform.
Prior to testing, the rat was placed on the platform for 120 secs., placed gently into the water, facing the wall of the pool, at one of four starting locations (north, south, east or west) around the pool's perimeter. Within each block of four trials, each rat was started at each of the four starting locations, with the sequence of starting locations randomly selected. Testing was carried out on 2 consecutive days with each rat submitted daily to eight trials. During trials 1-12 the platform was located in the center of the south-east quadrant and during trials 13-16 the platform was transferred to the center of the north-west quadrant. If in a particular trial the rat found the platform, it was permitted to remain on it for 60 secs. before starting the next trial. […] The latency to find the platform was measured.
For drug testing, rats were injected with AF64A or CSF (3 nmole/2 ul/side) as described in Experiment 2, above. The rats were subjected first to a step-through learning procedure (see Experiment 1, above) and were 3-3.5 months after injection when tested in the water maze. The rats were divided into 4 groups; 18 CSF-injected rats were treated either with physostigmine (0.1 mg./kg. ip) (10 rats) or with saline (8 rats). 20 AF64A-injected rats were divided similarly. The rats were injected with physostigmine immediately before testing on each day.
Forty male Sprague-Dawley rats (obtained from Charles River Breeding Laboratories U.K.), 5-6 months old, weighing 450-580 g. during the experiment served as subjects. Rats were housed in groups of 5 and were given free access to food and water. 2.5-3.5 months before behavioral testing, rats were injected with AF64A (3 nmole/2 ul/side) (20 rats-group 1) or CSF (20 rats-group 2) as described in the surgery procedure.
Each of the injected groups was randomly subdivided into two equal size treatment groups.

[6] = design: species or system Sprague Dawley rats; settings: rat, in vivo, ip
[7] = format: in vivo, mice; settings: for dose level for antinociceptive activity: mouse, in vivo
[8] = Hypothermia-inducing activity in rats
[9] = Tremor induced by AF102B, rats; format: in vivo
Excerpt: as §1

[10] = rats, ip
in vivo [11] = settings: mouse, po
[12] = mice
in vivo [13] = settings: mouse, iv
[14] = test system: Salmonella typhimurium, strains TA-15365, TA-100, TA1538, TA-98 and TA-1537; assay: Mutagenic activity (pour-plate assays)
[15] = target: central muscarinic receptors (M1) (Rattus norvegicus, UniProt P08482); assay: biochemical; format: binding; design: IC50^1 :IC50^2: unit not given beside the values
Sequence of central muscarinic receptors (M1) (P08482 whole entry): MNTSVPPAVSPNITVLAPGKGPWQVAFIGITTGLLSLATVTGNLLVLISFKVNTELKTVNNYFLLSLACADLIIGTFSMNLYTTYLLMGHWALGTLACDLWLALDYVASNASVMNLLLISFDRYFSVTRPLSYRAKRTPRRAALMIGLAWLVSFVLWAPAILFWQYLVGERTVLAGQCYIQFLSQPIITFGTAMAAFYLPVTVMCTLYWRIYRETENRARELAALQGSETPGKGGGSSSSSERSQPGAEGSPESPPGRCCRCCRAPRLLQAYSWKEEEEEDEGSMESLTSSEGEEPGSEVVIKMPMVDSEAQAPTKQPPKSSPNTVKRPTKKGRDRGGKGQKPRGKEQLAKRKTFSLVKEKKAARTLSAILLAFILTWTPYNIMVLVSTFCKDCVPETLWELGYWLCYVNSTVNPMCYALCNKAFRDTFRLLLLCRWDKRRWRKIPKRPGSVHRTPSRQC

[16] = design: species or system Male Sprague-Dawley rats; settings: rat, in vivo
Guinea-pig ileum [17] = assay: Guinea-pig ileum induced contractions
Excerpt: Guinea-pig ileum induced contractions
*This dose is the IC50 for inhibiting acetylcholineinduced
contractions of the ileum.

[18] = Acute oral toxicity of AF102B in rats; format: in vivo, rats (Charles River CD strain)
Method: The test material was prepared at various concentrations in saline and was administered at a constant volume-sosage of 5 ml./kg. Dosages were selected according to the availability of the test material. Mortality and signs of reaction to treatment were recorded during a 14-day period. Early decedents and surviving animals were subjected to necropsy on Day 15.

[19] = target: central muscarinic receptors (M1 and M2); format: binding, rat
[20] = test system: acetyl- and butyryl-cholinesterase; assay: Resistance to cholinesterases; format: in vitro ADME
[21] = oxotremorine 0.5 mg./kg., ip; cited from earlier work
[22] = oxotremorine 0.5 mg./kg., ip; cited from earlier work; remark: listed apart in the source
[23] = mouse, icv; cited from earlier work

SMILES: C[C@H]1O[C@]2(CS1)CN1CCC2CC1 (relative stereo) [AF102B]
- tremor-inducing dose [1]: 60 to 80 mg/kg
- pEC50 (Guinea-pig ileum [2]): 5.40
- death of mice [3]: All mice died
- LD50 at 336 h (in vivo [4]; LD50 (95% C.L.), rats): 77.6 mg/kg
- LD50 at 336 h (in vivo [4]; LD50, rats): 77.6 mg/kg
- effect in Morris Swimming Maze ([5]; AF102B 1 mg./kg., physostigmine 0.1 mg./kg.): counteracted; also recorded: reverses memory impairments in AF64A-treated rats; also recorded: definitely improved the memory deficits induced by AF64A; also recorded: significant decrease in escape latency
- effective dose, Morris Swimming Maze ([5]; AF64A rats): 1 mg/kg
- effect in 8-Arm Radial Maze [6]: counteracted; also recorded: reverses memory impairments in AF64A-treated rats; also recorded: improves AF64A-induced memory impairments; also recorded: significant (p<0.001, F=17.5) decrease in the mean number of errors; also recorded: improved performance only when rats were previously injected icv with AF64A; also recorded: memory impairment could be reversed
- effective dose, 8-Arm Radial Maze [6]: 5 mg/kg
- antinociceptive effect at highest non-lethal doses ([7]; mice, 60 mg./kg. p.o. and 40 mg./kg. i.p., vs codeine phosphate and oxotremorine): not fully developed at 60 mg./kg. p.o. and 40 mg./kg. i.p; also recorded: remained obviously weaker than those of codeine phosphate and oxotremorine
- dose level for antinociceptive activity ([7]; ip): > 10 mg/kg
- dose level for antinociceptive activity ([7]; po): greater than 20 mg./kg.
- onset of action following per os administration ([7]; po, analgesia, hypothermia and lethal dose level tests): 10 to 15 min
- cholinomimetic manifestation ([8]; AF102B at 80 mg./kg. p.o. and 60 mg./kg. i.p., oxotremorine 3.2 mg./kg. p.o. or 1.2 mg./kg. i.p.): Slight diarrhea was the single cholinomimetic manifestation
- dose level for hypothermia inducing activity ([8]; i.p.): > 15 mg/kg
- dose level for hypothermia inducing activity ([8]; p.o.): greater than 40 mg./kg.
- tremor-inducing dose ([9]; ip): > 78 mg/kg
- tremor-inducing dose ([9]; po): > 100 mg/kg
- principal signs of reaction to treatment [10]: spastic and tonic convulsions, tremors, tachypnoea and dyspnoea, decreased motor activity, slight to very strong salivation and urination
- deaths ([10]; 20.0-187.0 mg./kg.): deaths occurred at the three highest dose levels (61, 107, 187 mg./kg.), within twenty minutes after dosing
- slope ([10]; acute toxicity curve): 83 °
- LD50 ([10]; 20160 min): 78 mg/kg
- LD50 (in vivo [11]): 92 mg/kg
- Mortality ([12]; 31 mg./kg. i.v.): 3/6
- Mortality ([12]; 33 mg./kg. i.v.): 1/6
- Mortality ([12]; 35 mg./kg. i.v.): 5/6
- Mortality ([12]; 37 mg./kg. i.v.): 6/6
- Mortality ([12]; 39 mg./kg. i.v.): 6/6
- LD50 (95% C.I.) ([12]; intravenous): 33(31-35) mg./kg.
- LD50 (in vivo [13]): 33 mg/kg
- inhibition of growth ([14]; 1000 ug. per plate): No inhibition of growth
- mutagenic activity (reversion to prototrophy) ([14]; five strains, presence or absence of S-9 mix): No increases in reversion to prototrophy; also recorded: devoid of mutagenic activity; also recorded: not mutagenic up to high concentrations
- Mortality (mice, 64 mg./kg. per os): 0/5
- Mortality (mice, 71 mg./kg. per os): 0/5
- Mortality (mice, 80 mg./kg. per os): 2/5
- Mortality (mice, 90 mg./kg. per os): 2/5
- Mortality (mice, 101 mg./kg. per os): 3/5
- Mortality (mice, 113 mg./kg. per os): 4/5
- absorption by the enteric route (mice, inferred from i.v./oral LD50 ratio): efficient, rapid and apparently unaltered absorption
- LD50 (95% C.I.) (mice, oral): 92(74-116) mg./kg.
- Signs in reaction to treatment (mouse, in vivo): slightly enhanced intensity
- effects considered characteristic of parasympatho- or cholinomimetic activity (mouse, in vivo): none of the test animals exhibited effects considered characteristic of parasympatho- or cholinomimetic activity
- pEC50 [15]: 6.40
- pIC50 [15]: 6.40
- IC50^1 :IC50^2 ([15]; PNZ:QNB displacement ratio): 0.04
- duration of action [16]: very long beneficial effect; also recorded: long duration of action
- retention latency during extinction+latent extinction [16]: No significant differences
- reversal of AF64A-induced memory impairments in passive avoidance [16]: could be reversed; also recorded: reverses memory impairments in AF64A-treated rats
- Initial latency ([16]; ip): 16.71 ± 4.77 s and 11.86 ± 1.23 s and 19.71 ± 5.39 s
- Initial-test latency ([16]; ip): 18.40 ± 3.74 s and 15.30 ± 2.83 s
- Retention-test latency ([16]; ip): 330.57 ± 75.55 s and 348.14 s and 551.71 s and 514.10 ± 38.21 s and 447.60 ± 58.09 s
- retention latency during extinction ([16]; ip): significantly longer, F(1,36)=31.45, p<0.01; also recorded: significantly improved; also recorded: increased from the first to the fourth trial and then decreased
- retention-test differences between doses ([16]; ip): no significant differences were found during the 24 hr. retention-test between the different doses of AF102B
- Retention-test latency ([16]; po): 524.55 ± 45.60 s and 600 s
- retention of passive avoidance (statistics) ([16]; po): significantly longer [F(1,35)=28.46; p<0.001]; also recorded: significantly improved; also recorded: no significant difference between the AF102B-treated-CSF-injected group and the saline-treated-CSF-injected group; also recorded: significantly longer [F(1,18)=65.71; p<0.001]; also recorded: that of the CSF-injected group did not significantly change
- muscarinic agonist activity (TABLES 1 and 2) (Guinea-pig ileum [17]; binding and ileum): potent muscarinic agonist
- Type of activity (Guinea-pig ileum [17]; guinea-pig ileum): agonist
- deaths ([18]; oral): deaths occurred at all four dose-levels studied, within three hours 30 minutes after dosing
- necropsy observations ([18]; oral): a single case of haemorrhagic contents and occasional congested gastric mucosa was observed; also recorded: Necropsy of surviving animals did not reveal any abnormalities
- principal signs of reaction to treatment ([18]; oral): clonic convulsions, tremor, salivation, urogenital staining, diarrhoea and pigmented orbital secretion
- recovery and bodyweight of surviving animals ([18]; oral): all clinical signs of reaction to treatment were resolved by twenty four hours after dosing; also recorded: Surviving animals generally made expected bodyweight gains
- LD50 at 336 h ([18]; rat, in vivo, po): > 156 mg/kg
- pIC50 ([19]; read-out: IC50^2 for displacement of [^3 H]-QNB): 5.00
- pEC50 ([19]; summary table, read-out: EC50, [^3 H]--QNB-binding): 5.00

SMILES: CC1OC2(CS1)CN1CCC2CC1 (stereo not drawn) [(Ia), 2-methylspiro(1,3-oxathiolan-5,3')quinuclidine]
- pharmacological activity (muscarinic) [15]: muscarinic agonist with a high specificity for the central nervous system
- destruction by acetyl- and butyryl-cholinesterase [20]: not destroyed

SMILES: CN1CCN(CC(=O)N2c3ccccc3C(=O)Nc3cccnc32)CC1 [PNZ, pirenzepine]
- dose required to reduce the effect of oxotremorine by 50%, tremor [21]: 5.8 ug/mouse, icv
- dose required to reduce the effect of oxotremorine by 50%, antinociception [22]: 4.6 ug/mouse, icv
- minimum effective dose producing impaired passive avoidance learning [23]: 0.1 ug/mouse, icv
